Data set [1] addresses T1, cholesterol ester transfer protein (CETP) (Homo sapiens, UniProt P11597).
T1 construct: CETP is obtained in partially purified form from human plasma by differential centrifugation and column chromatography; from tissue; host or cells: human plasma
T1 sequence (P11597 18-493): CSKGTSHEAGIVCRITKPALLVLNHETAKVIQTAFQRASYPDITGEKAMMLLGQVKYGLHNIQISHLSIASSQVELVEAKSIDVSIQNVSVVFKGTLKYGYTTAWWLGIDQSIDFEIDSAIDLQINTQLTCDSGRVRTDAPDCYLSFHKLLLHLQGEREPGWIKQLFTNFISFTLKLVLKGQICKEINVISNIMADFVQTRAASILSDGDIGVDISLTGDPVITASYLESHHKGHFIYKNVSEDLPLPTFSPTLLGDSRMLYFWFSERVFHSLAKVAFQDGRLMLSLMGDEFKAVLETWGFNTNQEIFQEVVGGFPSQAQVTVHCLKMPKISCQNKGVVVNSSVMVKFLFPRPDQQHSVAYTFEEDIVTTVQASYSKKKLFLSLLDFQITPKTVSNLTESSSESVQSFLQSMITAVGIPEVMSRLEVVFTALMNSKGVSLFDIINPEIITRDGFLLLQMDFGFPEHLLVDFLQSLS
Description: CETP inhibition test (transfer of 3H-cholesterol ester from human HDL to biotinylated LDL, SPA). It counts as biochemical. The settings on record: CETP partially purified from human plasma; 37° C., 18 h; concentration at which transfer is reduced by half. The procedure:
CETP is obtained in partially purified form from human plasma by differential centrifugation and column chromatography and used for the test. For this purpose, human plasma is adjusted to a density of 1.21 g per ml using NaBr and centrifuged at 50,000 rpm at 4° C. for 18 h. The bottom fraction (d>1.21 g/ml) is applied to a Sephadex®Phenyl-Sepharose 4B (Pharmacia) column, washed with 0.15 m NaCl/0.001 m TrisHCl pH 7.4 and subsequently eluted using dist. water. The CETP-active fractions are pooled, dialysed against 50 mM Na-acetate pH 4.5 and applied to a CM-Sepharose® (Pharmacia) column. Elution is subsequently carried out using a linear gradient (0-1 M NaCl). The pooled CETP fractions are dialysed against 10 mM TrisHCl pH 7.4 and subsequently purified further by chromatography over a Mono Q® column (Pharmacia).
50 ml of fresh human EDTA plasma are adjusted to a density of 1.12 using NaBr and centrifuged at 4° C. in a Ty 65 rotor at 50,000 rpm for 18 h. The upper phase is used to obtain cold LDL. […]
To test the CETP activity, the transfer of ^3H-cholesterol ester from human HD-lipoproteins to biotinylated LD-lipoproteins is measured.
The reaction is terminated by addition of Streptavidin-SPA® beads (Amersham) and the transferred radioactivity is directly determined in a liquid scintillation counter. […]

SMILES strings stand for the structures.

Consider `CC1(C)CC(=O)c2c(nc(C3CCCC3)c(C(=O)c3ccc(C(F)(F)F)cc3)c2-c2ccncc2)C1` [Example 2], for which the melting point was in the range of 221 to 224 °C. Same read-out and setting: for `CC1(C)CC(=O)c2c(nc(C3CCCC3)c(C(=O)c3ccc(C(F)(F)F)cc3)c2C2CCCCC2)C1` [Example 3] the value was 185 to 186 °C. `CC1(C)CC(=O)c2c(nc(C3CCCC3)c(C(=O)c3ccc(C(F)(F)F)cc3)c2-c2ccsc2)C1` [Example 1, 2-Cyclopentyl-7,7-dimethyl-4-(3-thienyl)-3-(4-trifluoromethylbenzoyl)-5,6,7,8-tetrahydro-quinolin-5-one] registered an IC50 in data set [1] of 10 nM.

Usually melting point stands for the temperature of the solid-liquid transition. Usually IC50 stands for the concentration needed to halve the response being measured. Lower therefore signals inhibition by little substance.

The record behind these values is patent US6958346B2, “4-heteroaryl-tetrahydroquinolines and their use as inhibitors of the cholesterin-ester transfer protein” (Bayer Aktiengesellschaft, priority 1997, dated 2005).
